1 molecule from patent US20230141887A1, “CRYSTAL FORM OF DIAZASPIROPYRAN COMPOUND” (MEDSHINE DISCOVERY INC., priority 2020, published 2023) can be followed below.

The target of one experiment is T1, FLT3(N841I) (Homo sapiens, UniProt P36888, N841I).
T1 sequence (P36888 27-993 N841I): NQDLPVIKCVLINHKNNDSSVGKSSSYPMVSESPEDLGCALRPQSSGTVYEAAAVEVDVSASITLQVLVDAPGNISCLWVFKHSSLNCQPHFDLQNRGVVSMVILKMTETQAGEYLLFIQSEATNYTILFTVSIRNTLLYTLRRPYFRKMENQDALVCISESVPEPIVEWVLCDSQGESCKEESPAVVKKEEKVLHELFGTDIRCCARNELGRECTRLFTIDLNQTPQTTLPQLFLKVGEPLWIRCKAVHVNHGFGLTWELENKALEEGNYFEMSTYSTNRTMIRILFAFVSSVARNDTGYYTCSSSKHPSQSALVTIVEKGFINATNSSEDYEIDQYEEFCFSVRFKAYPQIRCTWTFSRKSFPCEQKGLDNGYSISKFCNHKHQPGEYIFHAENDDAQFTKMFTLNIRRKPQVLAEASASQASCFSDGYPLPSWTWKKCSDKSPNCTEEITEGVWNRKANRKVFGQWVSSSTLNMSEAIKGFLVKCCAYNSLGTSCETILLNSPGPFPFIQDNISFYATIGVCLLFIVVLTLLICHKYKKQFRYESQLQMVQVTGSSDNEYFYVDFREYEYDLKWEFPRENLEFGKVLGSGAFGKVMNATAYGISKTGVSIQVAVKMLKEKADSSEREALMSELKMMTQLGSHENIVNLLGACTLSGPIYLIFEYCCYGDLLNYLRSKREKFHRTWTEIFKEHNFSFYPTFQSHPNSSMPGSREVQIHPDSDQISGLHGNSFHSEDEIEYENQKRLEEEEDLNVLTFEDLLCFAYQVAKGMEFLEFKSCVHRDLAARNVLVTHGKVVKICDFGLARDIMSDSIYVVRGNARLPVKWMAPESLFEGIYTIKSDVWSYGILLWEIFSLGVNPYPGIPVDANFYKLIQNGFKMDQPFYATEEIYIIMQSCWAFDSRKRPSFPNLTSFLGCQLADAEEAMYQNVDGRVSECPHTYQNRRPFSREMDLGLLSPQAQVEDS
It is filed as binding. As for the experimental part:
(§1) The assay was carried out using KINOMEscan™ technology. The assay compounds were stored in 100% DMSO. The assay was carried out by means of 3-fold dilution and 11-point fitting. All compounds used for Kd determination were dispersed by ultrasound, then directly diluted and tested. All reactions were carried out in a 384-well polypropylene plate. Each portion has a final volume of 0.02 ml. The plate was incubated with shaking at room temperature for 1 hour, and then processed. The kinase concentration in the eluent was finally determined by qPCR method. Kd was obtained by fitting.

The target in another experiment is T2, FLT3(ITD, D835V) (Homo sapiens, UniProt P36888, D835V, form not given).
T2 construct: fused on or other part: DNA tag for the qPCR read-out (the KINOMEscan format)
T2 sequence (P36888 1-993 D835V): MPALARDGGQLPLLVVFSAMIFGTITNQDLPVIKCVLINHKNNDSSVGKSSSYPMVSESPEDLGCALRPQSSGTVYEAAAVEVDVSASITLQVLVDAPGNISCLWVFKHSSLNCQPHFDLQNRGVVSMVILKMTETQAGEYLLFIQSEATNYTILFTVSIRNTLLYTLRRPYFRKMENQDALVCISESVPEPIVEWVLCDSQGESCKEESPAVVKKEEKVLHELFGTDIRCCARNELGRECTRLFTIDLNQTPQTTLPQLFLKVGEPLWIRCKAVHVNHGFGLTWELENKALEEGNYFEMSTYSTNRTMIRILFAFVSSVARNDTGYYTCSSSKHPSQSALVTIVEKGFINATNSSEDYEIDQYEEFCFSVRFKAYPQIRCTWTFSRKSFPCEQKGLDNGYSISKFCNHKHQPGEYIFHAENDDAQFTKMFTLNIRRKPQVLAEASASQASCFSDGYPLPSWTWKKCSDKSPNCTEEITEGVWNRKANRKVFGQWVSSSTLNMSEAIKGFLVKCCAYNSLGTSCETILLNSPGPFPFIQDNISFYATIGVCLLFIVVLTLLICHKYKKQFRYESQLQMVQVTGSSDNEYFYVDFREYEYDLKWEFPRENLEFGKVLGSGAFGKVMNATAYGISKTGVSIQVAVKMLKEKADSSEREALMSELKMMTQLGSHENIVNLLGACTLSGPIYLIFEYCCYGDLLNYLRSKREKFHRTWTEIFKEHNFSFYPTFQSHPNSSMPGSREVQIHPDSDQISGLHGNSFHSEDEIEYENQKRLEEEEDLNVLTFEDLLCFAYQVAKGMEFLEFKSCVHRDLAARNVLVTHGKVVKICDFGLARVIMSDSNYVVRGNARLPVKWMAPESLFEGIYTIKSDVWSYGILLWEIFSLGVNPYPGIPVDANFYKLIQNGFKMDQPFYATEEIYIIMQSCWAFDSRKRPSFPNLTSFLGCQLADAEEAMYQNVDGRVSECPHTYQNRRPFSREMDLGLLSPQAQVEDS
It counts as binding. The protocol:
as §1

Structures are written as SMILES.

One may read the Kd as a measure of binding affinity in units of concentration. High values mean a looser complex, low ones a tighter complex. For `CCc1nc(C(N)=O)c(Nc2ccc(N3CCC4(CCN(C)CC4)CC3)c(C)c2)nc1NC1CCOCC1.O=C(O)C(F)(F)F`, the dissociation constant Kd worked out at 5.4 nM at FLT3(N841I) and 0.2 nM at FLT3(ITD, D835V).
